# Laboratory results reported in patent publication US12350310B2, “Treatment and prevention of nephrotoxin-induced kidney injuries” (Farsight Medical Technology (Shanghai) Co., Ltd., priority 2019, dated 2025).
# Several values for one entry are separate records, joined by “and”; a condition that tells them apart may be missing. Equal values may be shown once. Entries after “also recorded” stand apart in the source; their conditions may differ.
# Experiments:
# [1] = tested on: gentamicin-induced acute kidney injury; assay: Gentamicin-induced acute kidney injury model in rats, pathology and dose response (Example 2); assay type: in vivo; conditions: Compound I 0.5, 3, 9 mg/kg i.p.
# Protocol: A further study in rats was carried out essentially in analogy to the general study protocol described in Example 1, to further assess the efficacy and impact of Compound I against gentamicin-induced acute kidney injury and to test the dose response. The tissue pathology, as well as the additional biomarkers were assessed.
# Five groups formed part of the study (See Table 2): control (Group 1), vehicle (Group 2), and animals receiving Compound I at doses of 0.5 mg/kg (Group 3), 3 mg/kg (Group 4) and 9 mg/kg (Group 5). Except for the control Group 1, gentamicin (100 mg/kg) was given by intraperitoneal injection for 10 consecutive days, once daily from Day 1 to Day 10.
# The vehicle, or Compound I formulated in the vehicle was administered intraperitoneally (i.p.) for 10 days, from Day 1 to Day 10 of the study (total 11 times). On initiation of the experiment (Day 1), Compound I at the specified dose amounts was administered by i.p. injection 6 h, and 1 h before the gentamicin injection to the animals in groups 3, 4 and 5. Thereafter, on Day 2 to Day 10, Compound I was administered once daily at the specified dose to said study groups, approximately 1 h prior to the gentamicin injection. On day 10, the rats were euthanized. Blood samples were collected, and the kidney tissues (both left and right kidneys) of the rats were also taken for H&E staining. Histopathological evaluation was performed on the kidney sections using standard methods and scoring criteria in the art to assess the level of tissue damage caused by the gentamicin-induced acute kidney injury. The kidney sections were assessed and scored for: necrosis of renal tubules, tubular dilation, loss of tubular brush border, cast formation in the renal tubules, and interstitial inflammatory cell (neutrophil) infiltration. The scoring was performed on a scale of 0 to 4 (0=0% i.e. no observation, 1≤5%, 2=5-25%, 3=25-50%, 4≥50% i.e. extensive, severe, or widely visible damage) on both left and right kidney tissues. The scoring was accumulated to provide a total combined score.
# Kidney function analysis based on blood urea nitrogen (BUN) and creatinine in the serum was performed. Assay in plasma for biomarkers NGAL (neutrophil gelatinase-associated lipocalin) and Kim-1 (kidney injury molecule-1) was also determined.
# [2] = tested on: gentamicin-induced acute kidney injury; assay: Gentamicin-induced acute kidney injury model in rats (Example 1); assay type: in vivo, male Wistar rats; conditions: Compound I 3 mg/kg i.p. before gentamicin 100 mg/kg i.p. daily
# Protocol: Efficacy of the compound of Compound I against gentamicin-induced acute kidney injury was tested in a model study with male Wistar rats (180-220 g) randomly grouped based on body weights. Three groups formed part of the study: control, vehicle, and compound I (see Table I). Except for the control group, gentamicin (100 mg/kg) was given by intraperitoneal injection for 10 consecutive days, once daily from Day 1 to Day 10. The first day of gentamicin injection was designated as Day 1 of the study.
# The vehicle, or the Compound I formulated in the vehicle was administered intraperitoneally (i.p.) for 10 days, from Day 1 to Day 10 of the study (total 11 times). On initiation of the experiment (Day 1), Compound I (3 mg/kg) was administered by i.p. injection 6 h, and 1 h before the gentamicin injection. Thereafter, on Day 2 to Day 10, Compound I was administered once daily (3 mg/kg) 1 h prior to the gentamicin injection. Body weights of the rats were recorded daily. On the day 10, the animals were euthanized and blood sample was collected via cardiac punction. Serum was collected and stored at −80° C. for kidney function analysis of blood urea nitrogen (BUN) and creatinine.
# [3] = tested on: rhabdomyolysis-induced acute kidney injury; assay: Rhabdomyolysis-induced (glycerine) acute kidney injury model in rats (Example 3); assay type: in vivo, male SD rats; conditions: Compound I 3 mg/kg IP at 6 h and 1 h prior to glycerine, kidneys after 48 h, Group 3, Mean (SEM)
# Protocol: The efficacy of Compound I in protection against rhabdomyolysis-induced acute kidney injury was tested in a model study in male SD rats. The acute kidney injury model was induced in the rats by bilateral intra-muscular injection of 50% Glycerine (at a dose volume of 10 ml/kg body weight, divided into two sites of injection at each limb). Glycerine induces physiological conditions which are closely associated with rhabdomyolysis, such as myoglobinuria, tubular necrosis, and renal vasoconstriction.
# Three groups formed part of the study: sham, vehicle, and compound I. Except for the sham group, where no glycerine was injected, animals were dosed twice intraperitoneally with either Compound I or Vehicle: at 6 h and at 1 h prior to receiving the glycerine injection (see Table 3).
# After 48 h, the animals were euthanized, and their right and left kidneys were fixed in formalin 10%. Each kidney was cut longitudinally into 2 halves, both placed in a cassette and processed in paraffin. Sections were cut and stained using Hematoxylin and Eosin (H&E). The kidney sections were examined and histopathological analysis and scoring was performed for tubular, endothelial, glomerular and tubulointerstitial damage based on scoring systems in the art (e.g. Khalid U. et al, Journal of Histology & Histopathology. Volume 3, Article 1. 2016). Tubular epithelial necrosis scoring was based on the total number of tubules in the outer stripe of the outer medulla (OSOM). Tubulointerstitial damage was scored as a total percentage of the entire tissue observed in the section. The scores of each parameter were also added to provide a total histopathological score.
# Table 4 summarizes the histopathology scoring results for the test groups sham (Group 1), vehicle (Group 2) and compound I (Group 3). All data are presented as Mean±SEM. All treatment groups were compared to the sham group (Group 1) or to the vehicle group (Group 2) using Student's T-Test. A p value <0.05 is considered to represent a significant difference.
# [4] = especially G4 and G5, versus G2 vehicle
# [5] = gentamicin 100 mg/kg daily, Day 10, versus G2 vehicle
# [6] = gentamicin 100 mg/kg daily, Day 10, versus Group 2 vehicle
smiles,measurement,setting,value
"C/C=C/C[C@@H](C)[C@@H](O)[C@H]1C(=O)N[C@@H](CC)C(=O)N(C)[C@H](OCCN(C)C)C(=O)N(C)[C@@H](CC(C)C)C(=O)N[C@@H](C(C)C)C(=O)N(C)[C@@H](CC(C)C)C(=O)N[C@@H](C)C(=O)N[C@H](C)C(=O)N(C)[C@@H](CC(C)C)C(=O)N(C)[C@@H](CC(C)C)C(=O)N(C)[C@@H](C(C)C)C(=O)N1C [Compound I, [(R)-2′ (2-dimethylaminoethoxy)-Sar]^3 cyclosporin A]",total acute kidney injury pathology scoring of kidney tissue (FIG. 4A),"[1]; especially 3 and 9 mg/kg groups, gentamicin 100 mg/kg daily, Day 10, versus G2 vehicle",statistically significant impact in terms of generally reducing the severity of physical injury
same,KIM-1 biomarker level in plasma at endpoint (FIG. 7),[1]; [4],statistically relevant reduced levels
same,NGAL biomarker level in plasma at endpoint (FIG. 8),[1]; [4],statistically relevant reduced levels
same,severity of neutrophil infiltration (FIG. 4B),[1]; [5],markedly reduced
same,severity of tubular dilation (FIG. 4B),[1]; [5],markedly reduced
same,serum BUN level at endpoint (FIG. 6),[1]; [6],lower
same,serum creatinine level at endpoint (FIG. 5),[1]; [6],lower
same,rate of body weight gain over the 10-day study period (FIG. 1A),"[2]; Day 1-10, versus vehicle group",faster rate of body weight gain
same,overall body-weight change from baseline measurement on Day 1 (FIG. 1B),"[2]; Day 1 to Day 10, versus vehicle group",higher compared to the rats only treated with vehicle
same,serum blood urea nitrogen (BUN) level at endpoint (FIG. 2),[2]; Day 10 serum,"lower, compared to levels determined for the vehicle group; also recorded: comparable or similar levels as measured for the control group"
same,serum creatinine level at endpoint (FIG. 3),[2]; Day 10 serum,"lower, compared to levels determined for the vehicle group; also recorded: comparable or similar levels as measured for the control group"
same,"ED (Endothelial damage) score, Mean",[3],0.00 a.u.
same,"GD (Glomerular damage) score, Mean",[3],0.00 a.u.
same,"TD (Tubular Damage) score, Mean",[3],1.10±0.07 a.u. and 1.10## a.u.
same,"TID (Tubulointersititial damage) score, Mean",[3]; p<0.01 vs. vehicle,1.15±0.08 a.u. and 1.15##** a.u.
same,"Total Histopathological Score, Mean",[3]; p<0.01 vs. vehicle,2.15±0.08 a.u. and 2.15##** a.u.
